Test results from patent US20130209368A1, “NEAR INFRARED FLUORESCENT PARTICLES AND USES THEREOF” (YISSUM RESEARCH DEVELOPMENT COMPANY OF THE HEBREW …, priority 2010, published 2013).

Legend:
[1] = Absorption of ICG over time at light and at dark; format: physicochemical
Description: Absorbance spectra of the samples were taken using a Cary 100 Biospectrophotometer, in a 1 cm polystyrene cell, and a scan rate of 600 nm/min.
The red shift is accompanied with quenching of fluorescence, i.e., the larger the red shift the lower the fluorescence intensity. Because the fluorescence intensity of ICG-liposomes was greater than that of unbound ICG molecules (aqueous solution), the quantum yield ratio between the two states in which ICG is present was determined, for a concentration of 1.28×10^−3 mM. As mentioned above, ICG is poorly stable in aqueous solutions due to degradation, and therefore, in order to evaluate the stability of the ICG-adsorbed liposomes, the absorption of this fluorescent probe, when dissolved in an aqueous solution or adsorbed to the liposomes, was measured at light and at dark over time.

[2] = test system: Erk phosphorylation, an EGFR downstream signaling molecule, in A431 cells; experiment: EGF-FITC bioactivity: Erk phosphorylation by Western blotting; format: cell-based; conditions: A431 cultures, 10 ng/ml for 10 min
Description: FIGS. 7A-7D show purification and bioactivity validation of EGF-FITC. Purification of FITC-labeled EGF was performed in two sequential steps of desalting (7A) and ion exchange (7B). A431 cultures were incubated with 10 ng/ml for 10 min with native (EGF) and FITC-labeled EGF (EGF-FITC) or left untreated. The phosphorylation of Erk (p-Erk) was evaluated using Western blotting. Total Erk protein (pan-Erk) was measured for internal control purposes to assure loading of equal protein quantities (7C). A431 cells were incubated for 15 min with 10 ng/ml EGF-FITC in the presence or absence of excess unlabeled EGF (500 ng/ml) or left untreated. […]
Western blotting was performed as described by Lecht et al. (2010). Briefly, total cellular protein was extracted following lysis of the A431 cells and quantified using the Bradford reagent assay (Bio-Rad, Hercules, Calif., USA). For Western blotting, equal quantities of protein (40 μg) were loaded on 10% polyacrylamide gels, separated by SDS-PAGE (100 V for 1.5 hrs), and transferred on ice to nitrocellulose membranes (90 V for 1.5 hrs) (Whatman, Germany). […]
In order to study the binding of cetuximab-labeled ICG-adsorbed liposomes to cell overexpressing EGFR we prepared FITC-labeled EGF (EGF-FITC) to be used as positive control. […] Upon purification of EGF-FITC, the bioactivity of the labeled protein was evaluated. […]

[3] = test system: A431 cells; experiment: EGF-FITC labeling of A431 cells by fluorescent microscopy; format: cell-based; conditions: 10 ng/ml, 15 min; reduced by excess unlabeled EGF
Description: FIGS. 7A-7D show purification and bioactivity validation of EGF-FITC. Purification of FITC-labeled EGF was performed in two sequential steps of desalting (7A) and ion exchange (7B). A431 cultures were incubated with 10 ng/ml for 10 min with native (EGF) and FITC-labeled EGF (EGF-FITC) or left untreated. The phosphorylation of Erk (p-Erk) was evaluated using Western blotting. Total Erk protein (pan-Erk) was measured for internal control purposes to assure loading of equal protein quantities (7C). A431 cells were incubated for 15 min with 10 ng/ml EGF-FITC in the presence or absence of excess unlabeled EGF (500 ng/ml) or left untreated. The cultures were visualized using fluorescent microscopy at 40× magnification (7D).
In order to study the binding of cetuximab-labeled ICG-adsorbed liposomes to cell overexpressing EGFR we prepared FITC-labeled EGF (EGF-FITC) to be used as positive control. EGF-FITC was purified from excess FITC and unlabeled FOP via desalting and ion exchange purification steps. Following desalting, the fraction containing EGF and EGF-FITC was collected (FIG. 7A) and further processed to separate labeled from unlabeled EGF. […] Upon purification of EGF-FITC, the bioactivity of the labeled protein was evaluated. […] Following validation of the bioactivity of the labeled protein, EGF-FITC was used in the next experiments as a positive control.

Row | Compound | ICG absorption over time [1] | Erk phosphorylation [2] | labeling of A431 cells [3]
1 | CC1(C)C(/C=C/C=C/C=C/C=C2\N(CCCCS(=O)(=O)[O-])c3ccc4ccccc4c3C2(C)C)=[N+](CCCCS(=O)(=O)[O-])c2ccc3ccccc3c21.[Na+] [ICG, Indocyanine green] | decreases over time both in light and in dark | – | –
2 | EGF-FITC: human recombinant EGF covalently labeled with FITC, used as positive control | – | able to induce Erk phosphorylation | highly specific labeling
